Laboratory results published in patent US7745402B2, “Method of treating pancreatitis” (Lundbeck Inc., priority 2005, dated 2010).

Tests used:
[1] = system: caerulein-induced pancreatitis; test: Caerulein-induced pancreatitis and its pulmonary complications after hemin pretreatment; format: in vivo, Balb/c mice; settings: hemin 3× every other day, then caerulein hourly 7×; 12 h
Description: (A,B) Mice were injected intraperitoneally with hemin (H) or vehicle (V; 7 mice/group) every other day (3×; arrows) followed by injection with either saline (Sal) or caerulein (Cae) hourly (7×; arrows) and then harvesting of the pancreata and lungs at 12 h after first Sal or Cae injection. Sera were collected for amylase/lipase measurement. (C-E) Pancreatic and lung tissues (from panels A,B) were used to determine trypsin (pmol/mg protein) and myeloperoxidase (MPO; ng/mg wet tissue) enzyme activities and to assess extent of tissue injury. Data are presented as mean±SD. A representative hematoxylin and eosin staining of lung is shown (scale bar=50 μM).
Mice and pancreatitis models. Experiments and animal care were performed according to approved institutional guidelines. […]
Animal procedures. […] Immunofluorescence staining was performed as described (29) and images were analyzed using confocal microscopy. Total tissue lysates were prepared by homogenization in Laemmli sample buffer and analyzed by SDS-PAGE followed by transfer to membranes for blotting and protein visualization by enhanced chemiluminescence. Trypsin activity was determined using a fluorimetric assay and the substrate Boc-Gln-Ala-Arg-MCA (Peptides International Inc.; Louisville, Ky.), and comparison to a standard curve generated with purified trypsin as described. […]

peritoneal cells = test: Effect of hemin on peritoneal cell number (cell counting, flow cytometry); format: in vivo; settings: mice injected during a 7-day period, 3 per group, p 0.06 vs vehicle
Description: The effect of hemin or vehicle on peritoneal cell number was assayed. Mice (3 per group) were injected with vehicle or hemin during a 7-day period. Peritoneal cells were then isolated followed by counting. Cell viability was greater than 98% using trypan blue exclusion. The number of cells that were double positive for Mac-1^+ and F4/80^+ was then determined using flow cytometry. P-values compared the hemin treated versus the vehicle treated groups.

MIP-1α = test: Real-time RT-PCR of pancreatic chemokine mRNA after hemin; format: in vivo, mice; settings: pancreas 24 h after one intraperitoneal injection
Description: (§1) FIG. 3: Hemin increases HO-1^+ pancreatic macrophages in association with MCP-1 and MIP-1α induction. (A) Pancreas from CDD-fed mice was triple-stained using antibodies to HO-1 (a), the macrophage marker F4/80 (b), and the granulocyte marker Gr-1 (c). Scale bar in panel d=[…]. (B) Mice were treated intraperitoneally with hemin (H) or vehicle (V) once (H×1) or 3×(H×3, V×3) during a one week period, followed by feeding with CDD or regular chow for 3 d. Pancreata were collected followed by staining and counting F4/80^+ macrophages in 10 randomly selected high power fields (HPF). The mean±SD (3 mice/group) and p-value for the indicated comparisons are shown. (C) Hemin (H) or vehicle (V) were injected intraperitoneally once followed by harvesting of pancreata after 24 h. A non-injected control “C” group was also included. mRNA levels were then estimated from pancreata of 3 mice/group as a ratio of the indicated chemokine to β-actin (mean±SD).
(§2) Real-time reverse transcription (RT)-PCR. Total RNA was isolated from pancreatic tissue using a commercial kit (TEL-TEST; Friendswood, Tex.). First strand cDNA was synthesized using oligo-dT primers and SuperScript II reverse transcriptase (Invitrogen; Carlsbad, Calif.). Real-time quantitative PCR was performed with an ABI Prism 7900 Sequence Detection System (PE Biosystems; Foster City, Calif.) and established primers for MCP-1, MIP-1α, MIP-2, RANTES, and β-actin. Zhong, B., et al., J. Cell Sci. 117:1709-1719; Zhang, Y., McCormick, L. L., Desai, S. R., Wu, C., and Gilliam, A. C. 2002. Murine sclerodermatous graft-versus-host disease, a model for human scleroderma: cutaneous cytokines, chemokines, and immune cell activation. J. Immunol. 168:3088-3098; Walzog, B., Weinmann, P., Jeblonski, F., Scharffetter-Kochanek, K., Bommert, K., and Gaehtgens, P. 1999. A role for beta(2) integrins (CD11/CD18) in the regulation of cytokine20 gene expression of polymorphonuclear neutrophils during the inflammatory response. FASEB J. 13:1855-1865. Primers to β-actin were used as an internal control reference, and the amount of specific cytokine relative to actin transcript was determined and reported as mean±SD.

MIP-2 = test: as above; format: in vivo, mice; settings: pancreas 24 h after one intraperitoneal injection
Description: as §1, §2

RANTES = test: as above; format: in vivo, mice; settings: pancreas 24 h after one intraperitoneal injection
Description: as §1, §2

Substance: Hemin
- lung histology (hemorrhage, alveolar collapse) [1]: marked hemorrhage and alveolar collapse in vehicle (a) compared to hemin (b) pretreated mice
- Total cell number (peritoneal cells): 7.3 ± 2.1 × 10^6
- MIP-1α mRNA (ratio to β-actin) (MIP-1α): induction
- change in MIP-2 mRNA level (MIP-2): not significant
- change in RANTES mRNA level (RANTES): not significant
